Reference: US20130029981A1, “COMPOUNDS, COMPOSITIONS, AND METHODS FOR CONTROLLING BIOFILMS” (Katholieke Universiteit Leuven, priority 2009, published 2013)
Like-named read-outs stand apart in the source and are kept apart here.

Key:
S. Typhimurium ATCC14028 [1] = test: Growth inhibition of planktonic cells in the peg assay plate (OD600); assay type: cell-based, Salmonella Typhimurium; conditions: Salmonella enterica, ATCC14028, 16° C.
S. Typhimurium ATCC14028 [2] = test: Static peg assay for prevention of biofilm formation (Calgary device, crystal violet); assay type: cell-based, Salmonella Typhimurium
How it was run: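 Calgary 96-peg device, ca. 10^6 cells of ATCC14028 per well in TSB 1/20 for 24 h at 25° C (or 48 h at 16° C, medium and compound renewed at 24 h), or in CFA broth for 24 h at 37° C, static, with two-fold compound dilutions. Crystal violet stain, acetic acid extraction, OD570. IC50 from 2–3 independent experiments.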

S. Typhimurium SL1344 [3] = test: as above; assay type: cell-based; conditions: Salmonella enterica, SL1344, 16° C., read-out: IC50 biofilm inhibition
Protocol: After an incubation period of 24 hours at 25° C. or 37° C. or 48 hours at 16° C. the biofilms were visualized by crystal violet staining. […] Biofilm formation assays were carried out at 16° C., 25° C. and 37° C. […] Subsequently, an overnight culture of S. […] The pegged lid was placed on the microtiter plate and the plate was incubated for 48 hours at 16° C. or for 24 hours at 25° C. without shaking. During this incubation period biofilms were formed on the surface of the pegs. In case of the assay at 16° C., after 24 hours the lid was transferred into a new plate with medium and the specific molecules used for testing. […] The remaining attached bacteria were stained for 30 minutes with 200 μl 0.1% (w/v) crystal violet in an isopropanol/methanol/PBS solution (v/v 1:1:18). Excess stain was rinsed off by placing the pegs in a 96-well plate filled with 200 μl distilled water per well. After the pegs were air dried (30 min), the dye bound to the adherent cells was extracted with 30% glacial acetic acid (200 μl). The OD570 of each well was measured using the VERSAmax microtiter plate reader.

S. Typhimurium SL1344 [4] = test: Growth inhibition of planktonic cells in the peg assay plate (OD600); assay type: cell-based; conditions: Salmonella enterica, SL1344, 16° C.
[5] = system: Salmonella Typhimurium ATCC 14028; test: Antibacterial activity: growth inhibition, OD600 after 24 h (GIC50); assay type: cell-based
Protocol: Evaluation of antibacterial-inhibitory activity of some substituted 2-amino-1H-imidazoles of the invention was carried out by diluting an overnight culture of Salmonella Typhimurium ATCC 14028 into a liquid medium. 200 μl of the diluted overnight culture was added to each well of a microtiter plate together with different concentrations of the test compound (1/2 dilution series of the compound). After an incubation of 24 hours the optical density at 600 nm of each well was determined with a microtiter plate reader.
Starting from a 40 mM stock solution of each compound in DMSO, two-fold serial dilutions in 100 μl liquid broth per well were prepared in dublicate in sterile transparant microtiter plates. The broth used was TSB 1/20 for measurements at 25° C. and CFA (in case of Salmonella Typhimurium) and LBNS (in case of Pseudomonas aeruginosa) for measurements at 37° C. Subsequently an overnight culture of the bacteria (S. Typhimurium ATCC14028 or P. aeruginosa PA14) was diluted 1/200 into the corresponding liquid broth and 100 μl was added to each well of the microtiterplate resulting in a total amout of 200 μl medium per well. After an incubation of 24 hours the optical density at 600 nm of each well was determined with a microtiter plate reader (VERSAmax, Molecular Devices).
Evaluation of antibacterial-inhibitory activity of some substituted imidazo[1,2-a]pyrimidinium bromide salts of the invention was carried out by diluting an overnight culture of Salmonella Typhimurium ATCC14028 or Pseudomonas aeruginosa PA141/200 into liquid medium. 200 μl of the diluted overnight culture was added to each well of a microtiterplate together with different concentrations of the test compound (1/2 dilution series of the compound). After an incubation of 24 hours the optical density at 600 nm of each well was determined with a microtiter plate reader.

S. Typhimurium ATCC14028 [6] = test: Bioscreen assay: influence on planktonic growth curve; assay type: cell-based, Salmonella Typhimurium; parameters: key: x: no influence on the planktonic growth at the IC50 for biofilm inhibition; ∘: planktonic growth is retarded at the IC50 for biofilm inhibition; conditions: planktonic growth at the IC50 for biofilm inhibition, 25° C.
Excerpt: (§1) Some of the tested compounds show a concentration range in which biofilm formation is inhibited but no effect on planktonic growth is observed. These compounds are particularly interesting for prevention of biofilm formation since the development of resistance against these compounds is less likely. Table 8 indicates whether the different compounds have an effect on the planktonic growth of the bacteria at the IC50 for biofilm inhibition. To construct Table 8, the effect of the tested compounds on the growth curve of the bacteria was determined at a concentration equal to the IC50 for biofilm inhibition, by using the Bioscreen system available from Oy Growth Curves Ab Ltd). The Bioscreen device from Oy Growth Curves Ab Ltd was used for measuring the influence of the chemical compounds on the planktonic growth of Salmonella Typhimurium and Pseudomonas aeruginosa. The Bioscreen is a computer controlled incubator/reader/shaker that uses 10×10 well microtiter plates and measures light absorbance of each well at a specified wave length in function of time. An overnight culture of S. […] The broth used was TSB 1/20 for the experiments at 16° C. and 25° C. For experiments at 37° C. CFA medium was used for S. […] As a control 3 μl of the appropriate solvent (DMSO or EtOH) was also added to the plate in 3- or 4-fold. The microtiter plate was incubated in the Bioscreen device at 16° C., 25° C. or 37° C. for at least 36 hours, with continious medium shaking. The absorbance of each well was measured at 600 nm each 15 minutes. Excel was used to generate the growth curves for treated the treated wells and the untreated control wells. Some of the compounds show a concentration range in which biofilm formation is inhibited but no effect on the planktonic growth is observed. Table 14 indicates if the different compounds have an effect on the planktonic growth of the bacteria at the IC50 for biofilm inhibition. To construct this table the effect of the compounds on the growth curve of the bacteria was determined at a concentration equal to the IC50 for biofilm inhibtion, by using the Bioscreen system from Oy Growth Curves Ab Ltd.

[7] = system: Pseudomonas aeruginosa PA14; test: Static peg assay for prevention of biofilm formation (Calgary device, crystal violet); assay type: cell-based
How it was run: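 P. aeruginosa PA14 overnight TSB culture diluted 1:100 into broth with two-fold compound dilutions, biofilms grown 24 h static on polystyrene pegs of a Calgary device at 25 °C (TSB 1/20), 30 °C or 37 °C (CFA and/or LBNS). Biofilm quantified by crystal violet, extracted with 30% acetic acid, A570.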

S. Typhimurium ATCC14028 [8] = test: Bioscreen assay: influence on planktonic growth curve; assay type: cell-based, Salmonella Typhimurium; conditions: 40 μM; for Effect on growth at: 40 μM (S. Typhimurium): planktonic growth, 25° C.
Excerpt: as §1

[9] = Salmonella enterica, ATCC14028, 16° C., read-out: IC50 biofilm inhibition
[10] = OD600 after 24 hours of growth, read-out: GIC(50)
[11] = S. Typhimurium ATCC 14028, 25° C., read-out: IC50 for biofilm inhibition (25° C.)
[12] = Salmonella enterica, 25° C., Table 11, read-out: IC50 (biofilm formation)
[13] = Salmonella enterica, 25° C., Table 14, read-out: IC50 biofilm inhibition
[14] = 25° C., Table 11, read-out: IC50 (biofilm formation)
[15] = 25° C., Table 14, read-out: IC50 biofilm inhibition
[16] = S. Typhimurium ATCC 14028, 25° C., read-out: S. Typhimurium IC50 (biofilm formation)
[17] = P. aeruginosa PA14, 25° C., read-out: P. aeruginosa IC50 (biofilm formation)
[18] = 25° C., Table 19, read-out: IC50 (biofilm formation)

c1ccc(Sc2ccc3c(c2)OCO3)c(CNC2=NCCN2)c1 [Specs3-1]
IC50 (S. Typhimurium ATCC14028 [1]): 417 µM
IC50 (S. Typhimurium ATCC14028 [2]; [9]): 42 µM
IC50 (S. Typhimurium SL1344 [3]): ~65.9 µM
IC50 (S. Typhimurium SL1344 [4]): 417 µM

Fc1ccc(Sc2ccccc2CNC2=NCCN2)cc1 [Specs3]
IC50 (S. Typhimurium ATCC14028 [1]): 283 µM
IC50 (S. Typhimurium ATCC14028 [2]; [9]): 21.9 µM
IC50 (S. Typhimurium SL1344 [3]): ~31.8 µM
IC50 (S. Typhimurium SL1344 [4]): 283 µM

Clc1ccc(-c2c[nH]c(NC3CCCC3)n2)cc1 [R1=H, R2=cyclopentyl, R3=H, R4=p-Cl—Ph]
IC50 [5, 10]: 45 µM
IC50 (S. Typhimurium ATCC14028 [2]; [11]): 4 µM

OC1(c2ccc(Br)cc2)C[n+]2cccnc2N1C1CC1.[Br-] (centres unmarked) [R1=Cyclopropyl, R3=4-Br—Ph, R4=H, 1-cyclopropyl-2-hydroxy-2-(4-bromophenyl)-2,3-dihydro-1H-imidazo[1,2-a]-pyrimidin-4-ium bromide]
IC50 ([5]; Salmonella enterica, 25° C.): 25 to 50 µM
Influence on growth (S. Typhimurium ATCC14028 [6]): x
IC50 (S. Typhimurium ATCC14028 [2]; [12]): 27 µM
IC50 (S. Typhimurium ATCC14028 [2]; [13]): 27 µM

CCCCN1c2nccc[n+]2CC1(O)C(c1ccccc1)c1ccccc1 (centres unmarked) [R1=n-butyl, R3=dimethylphenyl, R4=H, 1-butyl-2-hydroxy-2-(diphenyl-methyl)-2,3-dihydro-1H-imidazo[1,2-a]pyrimidin-4-ium bromide]
IC50 ([5]; Salmonella enterica, 25° C.): 50 to 100 µM
IC50 (S. Typhimurium ATCC14028 [2]; [13]): 72.1 µM

OC1(c2ccc(Cl)cc2)C[n+]2cccnc2N1C1CC1 (centres unmarked) [Compound 61]
IC50 ([5]; 25° C.): 100 to 200 µM
IC50 (S. Typhimurium ATCC14028 [2]; [14]): 120 µM
IC50 (S. Typhimurium ATCC14028 [2]; [15]): 120 µM
IC50 (S. Typhimurium ATCC14028 [2]; 25° C., Table 18, read-out: S. Typhimurium IC50 (biofilm formation)): 82.7 µM
IC50 ([7]; 25° C., Table 18, read-out: P. aeruginosa IC50 (biofilm formation)): 179 µM

Clc1ccc(-c2c[nH]c(NC3CCCC3)n2)cc1Cl
IC50 [5, 10]: 50 µM
IC50 (S. Typhimurium ATCC14028 [2]; [11]): 6 µM
IC50 ([7]; P. aeruginosa PA14, 25° C., read-out: IC50 for biofilm inhibition (25° C.)): 1 µM

COc1ccc(C2(O)C[n+]3cccnc3N2C2CCCCC2)cc1 (centres unmarked) [R1=Cyclohexyl, R3=4-MeO—Ph, R4=H, 1-cyclohexyl-2-hydroxy-2-(4-methoxyphenyl)-2,3-dihydro-1H-imidazo[1,2-a]pyrimidin-4-ium bromide]
IC50 ([5]; Salmonella enterica, 25° C.): 50 to 100 µM
IC50 (S. Typhimurium ATCC14028 [2]; [12]): 112 µM
IC50 (S. Typhimurium ATCC14028 [2]; [13]): 112 µM

COc1ccc(CCN2c3nccc[n+]3CC2(O)c2ccc([N+](=O)[O-])cc2)cc1OC (centres unmarked) [R1=2-(3,4-diMeO—Ph)Et, R3=4-NO2-Ph, R4=H, 1-(2-(3,4-dimethoxyphenyl)ethyl)-2-hydroxy-2-(4-nitrophenyl)-2,3-dihydro-1H-imidazo-[1,2-a]pyrimidin-4-ium bromide]
IC50 ([5]; Salmonella enterica, 25° C.): 100 to 200 µM
IC50 (S. Typhimurium ATCC14028 [2]; [12]): 127 µM
IC50 (S. Typhimurium ATCC14028 [2]; [13]): 127 µM

Nc1nc(-c2ccc([N+](=O)[O-])cc2)c[nH]1 [Compound 90]
Effect on growth at: 40 μM (S. Typhimurium) (S. Typhimurium ATCC14028 [8]): ∘
IC50 (S. Typhimurium ATCC14028 [2]; [16]): 17.6 µM
IC50 [7, 17]: 34.5 µM

COc1cccc(CCN2c3nccc[n+]3CC2(O)c2ccc(Cl)c(Cl)c2)c1.[Br-] (centres unmarked) [Compound 77]
Effect on growth at 40 μM (S. Typhimurium ATCC14028 [8]): ∘
Influence on growth (S. Typhimurium ATCC14028 [6]): x
IC50 (S. Typhimurium ATCC14028 [2]; [14]): 7.39 µM
IC50 (S. Typhimurium ATCC14028 [2]; [15]): 7.39 µM
IC50 (S. Typhimurium ATCC14028 [2]; [18]): 7.23 µM

CCCCCNc1ncc(-c2ccc(Cl)c(Cl)c2)[nH]1 [Compound 110]
Effect on growth at: 40 μM (S. Typhimurium) (S. Typhimurium ATCC14028 [8]): ∘
IC50 (S. Typhimurium ATCC14028 [2]; [16]): 2.2 µM
IC50 [7, 17]: 0.7 µM

CSc1ccc(C2(O)C[n+]3cccnc3N2C2CCCCC2)cc1 (centres unmarked) [R1=Cyclohexyl, R3=4-MeS—Ph, R4=H, 1-cyclohexyl-2-hydroxy-2-(4-methylthiophenyl)-2,3-dihydro-1H-imidazo[1,2-a]pyrimidin-4-ium bromide]
IC50 ([5]; Salmonella enterica, 25° C.): 100 to 200 µM
IC50 (S. Typhimurium ATCC14028 [2]; [12]): 118 µM
IC50 (S. Typhimurium ATCC14028 [2]; [13]): 118 µM

Brc1ccc(-c2c[nH]c(NC3CCCC3)n2)cc1 [R1=H, R2=cyclopentyl, R3=H, R4=p-Br—Ph]
IC50 [5, 10]: 50 to 100 µM

OC1(c2ccc3c(c2)OCO3)C[n+]2cccnc2N1Cc1ccc2c(c1)OCO2 (centres unmarked) [Compound 80]
IC50 ([5]; 25° C.): 100 to 200 µM
IC50 (S. Typhimurium ATCC14028 [2]; [14]): 102 µM
IC50 (S. Typhimurium ATCC14028 [2]; [15]): 102 µM
IC50 (S. Typhimurium ATCC14028 [2]; [18]): 53.7 µM

Clc1ccc(-c2cnc(NCc3ccccc3)[nH]2)cc1 [Compound 127]
IC50 [5, 10]: 100 µM
IC50 (S. Typhimurium ATCC14028 [2]; 25° C., Table 22, read-out: S. Typhimurium IC50 (biofilm formation)): 30.7 µM
IC50 (S. Typhimurium ATCC14028 [2]; [11]): 31 µM
IC50 ([7]; 25° C., Table 22, read-out: P. aeruginosa IC50 (biofilm formation)): 26.3 µM

CC1[n+]2cccnc2N(c2ccccc2)C1(O)c1ccc(Br)cc1 (centres unmarked) [R1=Ph, R3=4-Br—Ph, R4=Me, 1-phenyl-2-hydroxy-2-(4-bromophenyl)-3-methyl-2,3-dihydro-1H-imidazo[1,2-a]pyrimidin-4-ium bromide]
IC50 ([5]; Salmonella enterica, 25° C.): 50 to 100 µM
IC50 (S. Typhimurium ATCC14028 [2]; [12]): 57.5 µM
IC50 (S. Typhimurium ATCC14028 [2]; [13]): 57.5 µM
